According to ChEMBL document CHEMBL1158945, “Four Novel Diterpenoids: Clavirolides B, C, D, and E from the Chinese Soft Coral Clavularia viridis” (J Nat Prod, 1991):
≈ marks a conversion by molar mass, not a printed value.

Key:
[1] = Cytotoxicity against mouse EAC cells; format: functional, cell-based; details: Ehrlich
[2] = species on record: Oryctolagus cuniculus; experiment: Blocked of calcium channel in rabbit smooth muscle; format: tissue-based; details: Muscle tissue
[3] = Negative inotropic activity in guinea pig atria muscle at 36 uM; format: functional, Cavia porcellus, Muscle tissue
[4] = system: Heart; experiment: Toxicity in isolated guinea pig heart assessed as bradycardia at 45 uM/kg; format: tissue-based, Cavia porcellus; details: ex_vivo
[5] = system: Rattus norvegicus; experiment: Decrease in blood pressure in rat at 45 uM/kg; format: organism-based

SMILES: CC1=C2CC[C@@]3(C)CC/C(C)=C\C(=O)C[C@@H](C)C[C@@H](OC1=O)[C@H]23 [CLAVIROLIDE D]
- IC50 [1]: 11.7 µg/mL (≈ 37 µM)
- pD2 [2]: 4.79

SMILES: CC1=C2CC[C@@]3(C)C/C=C(/C)CC(=O)C[C@@H](C)C[C@@H](OC1=O)[C@H]23 [CLAVULACTONE]
- IC50 [1]: 8 µg/mL (≈ 25.3 µM)

SMILES: CC1=C2CC[C@@]3(C)C/C=C(\C)CC(=O)C[C@@H](C)C[C@@H](OC1=O)[C@H]23 [CLAVIROLIDE B]
- IC50 [1]: 21 µg/mL (≈ 66.4 µM)
- pD2 [2]: 4.68

SMILES: CC1=C2CC[C@@]3(C)CC[C@H](C)CC(=O)C[C@@H](C)C[C@@H](OC1=O)[C@H]23 [CLAVIROLIDE C]
- IC50 [1]: 27 µg/mL (≈ 84.8 µM)
- pD2 [2]: 5.48
- Activity [3]: 50%
- Activity [4]: 43.7%
- Activity [5]: 24 mmHg
